Laboratory results taken from US9399028B2, “Treatment of drug resistant cancer” (ROCKEFELLER UNIVERSITY (THE), priority 2012, dated 2016).
Counter-ions that a name gives are not always drawn.

Experiments:
[1] = test system: human breast, pancreatic, renal, lung cancer and uveal melanoma cell lines; assay: Trans-well matrigel invasion assay, other cancer types; format: cell-based
Description: The ability of cancer cells to invade through matrigel in vitro was tested by using a trans-well matrigel invasion chamber system (354480, BD Biosciences). Various cancer cell lines were serum-starved overnight in media containing 0.2% FBS. The following day, invasion chambers were pre-equilibrated prior to the assay by adding 0.5 mL of starvation media to the top and bottom wells. Meanwhile, cancer cells were trypsinized and viable cells were counted using the trypan blue dead cell exclusion dye. Cancer cells were then resuspended at a concentration of 1×10^5 cells/1 mL starvation media, and 0.5 mL of cell suspension, containing 5×10^4 cells, was seeded into each trans-well. […] The basal side of each insert was imaged using an inverted fluorescence microscope (Zeiss Axiovert 40 CFL) at 5× magnification, and the number of DAPI-positive cells was quantified using ImageJ.
The cells were serum starved for 16 hours in 0.2% FBS media in the presence of DMSO or GW3965. […] Meanwhile, cancer cells were trypsinized and viable cells were counted using trypan blue. […] The basal side of each insert was imaged using an inverted fluorescence microscope (Zeiss Axiovert 40 CFL) at 5× magnification, and the number of DAPI-positive cells was quantified using ImageJ.

ApoE = ApoE expression in vivo (western blot, qRT-PCR) in mouse tissues, white blood cells and tumors; details: for ApoE protein expression in systemic adipose, lung, and brain tissues: chow 20 mg/kg for 10 days, western blot; for ApoE transcript levels in circulating white blood cells: diet 20 mg/kg for 10 days
Description: FIG. 29A-K. Therapeutic Delivery of LXR Agonists Upregulates Melanoma-Derived and Systemic ApoE Expression. (FIG. 29A-FIG. 29B) ApoE expression levels, quantified by qRT-PCR, in subcutaneous tumors formed by B16F10 mouse melanoma cells injected into C57BL/6 mice. After 5-mm3 tumor formation, mice were fed a control diet or diet containing GW3965 (20 mg/kg) (FIG. 29A) or T0901317 (20 mg/kg) (FIG. 29B) for 7 days. n=3-4. (FIG. 29C-FIG. 29E) ApoE transcript expression in primary tumors (FIG. 29C), lung metastases (FIG. 29D), and brain metastases (FIG. 29E) formed by MeWo human melanoma cells grafted onto NOD Scid mice that were administered control chow or chow supplemented with GW3965 (20 mg/kg). ApoE levels were assessed on day 35 (FIG. 29C), day 153 (FIG. 29D), and day 34 (FIG. 29E) post-injection of the cancer cells. n=3-5. (FIG. 29F) Relative expression levels of LXRα, LXRβ, and ApoE were determined by qRT-PCR in B16F10 mouse melanoma cells expressing a control hairpin or an shRNA targeting mouse LXRα (sh_mLXRα), mouse LXRβ (sh_mLXRβ), or mouse ApoE (sh_mApoE). (FIG. 29G-FIG. 29H) ApoE (FIG. 29G) and ABCA1 (FIG. 29H) mRNA levels, measured by qRT-PCR, in B16F10 cells expressing a control shRNA or shRNAs targeting mouse LXRβ or mouse ApoE. The cells were treated with DMSO or GW3965 at 5 μM for 48 hours. n=3. (FIG. 29I) ABCA1 mRNA levels, measured by qRT-PCR, in systemic white blood cells extracted from LXRα−/− or LXRβ−/− mice fed a control diet or a GW3965-supplemented diet (20 mg/kg) for 10 days. n=3-4. (FIG. 29J) Relative expression of ApoE mRNA, expressed as the frequency of SAGE tags, in mouse skin and lung tissues was determined using the public mSAGE Expression Matrix database available through the NCI-funded Cancer Genome Anatomy Project (CGAP). (FIG. 29K) Relative expression of ApoE mRNA, determined by qRT-PCR, in MeWo melanoma cells dissociated from lung metastatic nodules (LM2) or primary tumors relative to control unselected MeWo parental cells. n=3.
FIG. 30A-I. LXRβ Agonism Suppresses Melanoma Tumor Growth and Metastasis by Inducing Melanoma-Derived and Systemic ApoE Expression. […] (FIG. 30B) Quantification of ApoE protein expression based on western blots shown in (FIG. 30A). […] (FIG. 30C) Expression levels of ApoE, determined by qRT-PCR, in systemic white blood cells from mice fed a control diet or a diet supplemented with GW3965 or T0901317 at 20 mg/kg for 10 days. n=3-6. […] Once the tumors reached 5-10 mm3 in volume, mice were fed a control diet or a diet supplemented with GW3965 (20 mg/kg) for 7 days, after which final tumor volume was measured. […] (FIG. 30E) ApoE transcript levels, quantified by qRT-PCR, in systemic white blood cells extracted from LXRα−/− or LXRβ−/− mice fed a control diet or a GW3965-supplemented diet (20 mg/kg) for 10 days. n=3-5. […]

Row | Molecule | tumor cell invasion across breast, renal cell and pancreatic cancer ([1]; recombinant ApoE3 100 μg/mL) | ApoE protein expression in systemic adipose, lung, and brain tissues (ApoE) | ApoE transcript levels in circulating white blood cells (ApoE) | tumor cell invasion in renal, pancreatic and lung cancer cells ([1]; RCC, PANC1, H460 cells, 1 μM for 72 hours)
1 | recombinant human ApoE3: recombinant human ApoE3 (4696, BioVision) | inhibited | – | – | –
2 | O=C(O)Cc1cccc(OCCCN(Cc2cccc(C(F)(F)F)c2Cl)CC(c2ccccc2)c2ccccc2)c1 [GW3965 2, 3-[3-[N-(2-Chloro-3-trifluoromethylbenzyl)-(2,2-diphenylethyl)amino]propyloxy]phenylacetic acid hydrochloride] | – | significantly elevated | upregulated | inhibition
3 | O=S(=O)(c1ccccc1)N(CC(F)(F)F)c1ccc(C(O)(C(F)(F)F)C(F)(F)F)cc1 [T0901317 1] | – | significantly elevated | upregulated | –
